Measurements from ChEMBL document CHEMBL5724914, “Linking interpersonal differences in gut microbiota composition and drug biotransformation activity” (2024).

How the values were obtained:
[1] = The drug is tested on WLS-370 corresponding to human gut metagenome with ENA study accession number: PRJEB37062 and ENA sample accession number: ERS12561793 for biotransformation under anaerobic condition. The drug concentrations were measured over 9 timepoints collected between 0 and 24 hours of incubation by liquid-chromatography-coupled mass spectrometry (LC–MS); details: 2 µM
[2] = human gut metagenome, 24 h, 2 µM
[3] = human gut metagenome, 24 h, 2 µM; remark: listed apart in the source
[4] = The drug is tested on Z-005 corresponding to metagenome with ENA study accession number: PRJEB37062 and ENA sample accession number: ERS12561805 for biotransformation under anaerobic condition. The drug concentrations were measured over 9 timepoints collected between 0 and 24 hours of incubation by liquid-chromatography-coupled mass spectrometry (LC–MS); details: 2 µM
[5] = human gut metagenome, 24 h, 2 µM; remark: listed apart in the source
[6] = human gut metagenome, 24 h, 2 µM; remark: listed apart in the source
[7] = human gut metagenome, 24 h, 2 µM; remark: listed apart in the source
[8] = The drug is tested on WLS-069 corresponding to human gut metagenome with ENA study accession number: PRJEB37062 and ENA sample accession number: ERS12561748 for biotransformation under anaerobic condition. The drug concentrations were measured over 9 timepoints collected between 0 and 24 hours of incubation by liquid-chromatography-coupled mass spectrometry (LC–MS); details: 2 µM
[9] = The drug is tested on WLS-310 corresponding to human gut metagenome with ENA study accession number: PRJEB37062 and ENA sample accession number: ERS12561785 for biotransformation under anaerobic condition. The drug concentrations were measured over 9 timepoints collected between 0 and 24 hours of incubation by liquid-chromatography-coupled mass spectrometry (LC–MS); details: 2 µM
[10] = human gut metagenome, 24 h, 2 µM; remark: listed apart in the source
[11] = human gut metagenome, 24 h, 2 µM; remark: listed apart in the source
[12] = human gut metagenome, 24 h, 2 µM; remark: listed apart in the source
[13] = The drug is tested on WLS-038 corresponding to human gut metagenome with ENA study accession number: PRJEB37062 and ENA sample accession number: ERS12561745 for biotransformation under anaerobic condition. The drug concentrations were measured over 9 timepoints collected between 0 and 24 hours of incubation by liquid-chromatography-coupled mass spectrometry (LC–MS); details: 2 µM
[14] = human gut metagenome, 24 h, 2 µM; remark: listed apart in the source
[15] = The drug is tested on Z-022 corresponding to mouse gut metagenome with ENA study accession number: PRJEB37062 and ENA sample accession number: ERS12561821 for biotransformation under anaerobic condition. The drug concentrations were measured over 9 timepoints collected between 0 and 24 hours of incubation by liquid-chromatography-coupled mass spectrometry (LC–MS); details: 2 µM
[16] = The drug is tested on WLS-010 corresponding to human gut metagenome with ENA study accession number: PRJEB37062 and ENA sample accession number: ERS12561743 for biotransformation under anaerobic condition. The drug concentrations were measured over 9 timepoints collected between 0 and 24 hours of incubation by liquid-chromatography-coupled mass spectrometry (LC–MS); details: 2 µM
[17] = The drug is tested on WLS-350 corresponding to human gut metagenome with ENA study accession number: PRJEB37062 and ENA sample accession number: ERS12561789 for biotransformation under anaerobic condition. The drug concentrations were measured over 9 timepoints collected between 0 and 24 hours of incubation by liquid-chromatography-coupled mass spectrometry (LC–MS); details: 2 µM
[18] = human gut metagenome, 24 h, 2 µM; remark: listed apart in the source
[19] = human gut metagenome, 24 h, 2 µM; remark: listed apart in the source
[20] = The drug is tested on WLS-039 corresponding to human gut metagenome with ENA study accession number: PRJEB37062 and ENA sample accession number: ERS12561746 for biotransformation under anaerobic condition. The drug concentrations were measured over 9 timepoints collected between 0 and 24 hours of incubation by liquid-chromatography-coupled mass spectrometry (LC–MS); details: 2 µM
Further: call rule not given here.

Cc1ccc(-c2cc(C(F)(F)F)nn2-c2ccc(S(N)(=O)=O)cc2)cc1 [CELECOXIB]
Bacterial Biotransformation [1]: Compound metabolized | Bacterial Biotransformation [2]: Compound NOT metabolized | Bacterial Biotransformation [3]: Compound NOT metabolized | Bacterial Biotransformation [4]: Compound NOT metabolized | Bacterial Biotransformation [5]: Compound metabolized | Bacterial Biotransformation [6]: Compound metabolized | Bacterial Biotransformation [7]: Compound NOT metabolized | Bacterial Biotransformation [8]: Compound metabolized | Bacterial Biotransformation [9]: Compound NOT metabolized | Bacterial Biotransformation [10]: Compound metabolized | Bacterial Biotransformation [11]: Compound NOT metabolized | Bacterial Biotransformation [12]: Compound metabolized | Bacterial Biotransformation [13]: Compound metabolized | Bacterial Biotransformation [14]: Compound metabolized | Bacterial Biotransformation [15]: Compound NOT metabolized | Bacterial Biotransformation [16]: Compound metabolized | Bacterial Biotransformation [17]: Compound NOT metabolized | Bacterial Biotransformation [18]: Compound metabolized | Bacterial Biotransformation [19]: Compound NOT metabolized | Bacterial Biotransformation [20]: Compound metabolized

CN1C(=O)CCS(=O)(=O)C1c1ccc(Cl)cc1 (stereo not given) [CHLORMEZANONE]
Bacterial Biotransformation [1]: Compound NOT metabolized | Bacterial Biotransformation [2]: Compound NOT metabolized | Bacterial Biotransformation [3]: Compound NOT metabolized | Bacterial Biotransformation [4]: Compound NOT metabolized | Bacterial Biotransformation [5]: Compound metabolized | Bacterial Biotransformation [6]: Compound NOT metabolized | Bacterial Biotransformation [7]: Compound NOT metabolized | Bacterial Biotransformation [8]: Compound NOT metabolized | Bacterial Biotransformation [9]: Compound NOT metabolized | Bacterial Biotransformation [10]: Compound NOT metabolized | Bacterial Biotransformation [11]: Compound NOT metabolized | Bacterial Biotransformation [12]: Compound NOT metabolized | Bacterial Biotransformation [13]: Compound NOT metabolized | Bacterial Biotransformation [14]: Compound NOT metabolized | Bacterial Biotransformation [15]: Compound NOT metabolized | Bacterial Biotransformation [16]: Compound NOT metabolized | Bacterial Biotransformation [17]: Compound NOT metabolized | Bacterial Biotransformation [18]: Compound NOT metabolized | Bacterial Biotransformation [19]: Compound NOT metabolized | Bacterial Biotransformation [20]: Compound NOT metabolized

Clc1ccc(Cn2c(CN3CCCC3)nc3ccccc32)cc1 [CLEMIZOLE]
Bacterial Biotransformation [1]: Compound metabolized | Bacterial Biotransformation [2]: Compound metabolized | Bacterial Biotransformation [3]: Compound metabolized | Bacterial Biotransformation [4]: Compound NOT metabolized | Bacterial Biotransformation [5]: Compound metabolized | Bacterial Biotransformation [6]: Compound metabolized | Bacterial Biotransformation [7]: Compound metabolized | Bacterial Biotransformation [8]: Compound metabolized | Bacterial Biotransformation [9]: Compound metabolized | Bacterial Biotransformation [10]: Compound NOT metabolized | Bacterial Biotransformation [11]: Compound metabolized | Bacterial Biotransformation [12]: Compound NOT metabolized | Bacterial Biotransformation [13]: Compound metabolized | Bacterial Biotransformation [14]: Compound NOT metabolized | Bacterial Biotransformation [15]: Compound NOT metabolized | Bacterial Biotransformation [16]: Compound NOT metabolized | Bacterial Biotransformation [17]: Compound metabolized | Bacterial Biotransformation [18]: Compound metabolized | Bacterial Biotransformation [19]: Compound NOT metabolized | Bacterial Biotransformation [20]: Compound metabolized
